Test results published in ChEMBL document CHEMBL3046084, “Synthesis and evaluation of p-N,N-dialkyl substituted chalcones as anti-cancer agents” (Med Chem Res, 2013).
Active and inactive are the calls of the source. The calls are words filed in the database; no cut-off is given here.

Assays:
[1] = test system: Mycolicibacterium smegmatis; assay: Anti-mycobacterial activity against Mycobacterium smegmatis assessed as diameter of growth inhibition zone at 10 mM; format: functional; conditions: read-out: DIZ
MCF7 = assay: Anticancer activity against Homo sapiens (human) MCF7 cells assessed as inhibition of cell viability by SRB assay; format: functional, cell-based
[2] = target: Beta-secretase 1 (Homo sapiens) (UniProt P56817); assay: Inhibition of Homo sapiens (human) recombinant BACE1 using FRET peptide Abz-YIWDEIDLMVLD-DNP as substrate at 50 uM preincubated with enzyme for 30 min prior to substrate addition measured by plate reader analysis
Beta-secretase 1 (Homo sapiens), sequence (P56817 whole entry): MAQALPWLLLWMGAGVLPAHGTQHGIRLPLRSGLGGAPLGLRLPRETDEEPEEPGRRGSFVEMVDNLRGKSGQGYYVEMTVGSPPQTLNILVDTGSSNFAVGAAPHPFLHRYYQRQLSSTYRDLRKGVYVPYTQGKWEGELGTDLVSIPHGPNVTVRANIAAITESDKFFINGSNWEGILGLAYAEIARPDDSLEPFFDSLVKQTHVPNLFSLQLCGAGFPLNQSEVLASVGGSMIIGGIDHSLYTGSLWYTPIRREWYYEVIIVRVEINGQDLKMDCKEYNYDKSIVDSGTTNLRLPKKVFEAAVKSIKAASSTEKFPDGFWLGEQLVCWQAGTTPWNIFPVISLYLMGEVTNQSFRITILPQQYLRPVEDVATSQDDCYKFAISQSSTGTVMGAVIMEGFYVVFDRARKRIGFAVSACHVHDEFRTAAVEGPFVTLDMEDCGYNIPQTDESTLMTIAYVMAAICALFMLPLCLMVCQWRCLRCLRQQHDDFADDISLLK

IC50 (MCF7)	Structure (SMILES)	other results
	O=C(/C=C/c1ccc(N(Cc2ccccc2)Cc2ccccc2)cc1)c1ccco1	zone of inhibition at 10000 µM [1]: 15 mm
50 µM	O=C(/C=C/c1ccc(N2CCN(CCO)CC2)cc1)c1ccc(Cl)cc1	
	COc1cc(C(=O)/C=C/c2ccc(N(Cc3ccccc3)Cc3ccccc3)cc2)cc(OC)c1OC	inhibition [2]: Active
50 µM	O=C(/C=C/c1ccc(N2CCN(CCO)CC2)cc1)c1ccc(Br)cc1	
